# Source: patent publication US20040266766A1, “Selective urokinase inhibitors” (Wilex AG, priority 2001, published 2004)
# pKi: −log10 of the molar value. Where a name gives a salt, the structure may show the parent alone. Read-outs that look alike come from different tables or passages of the source.
# Columns and labels:
# mouse mammary carcinoma = details: cited from earlier work
# rat prostate carcinoma = details: syngenic model for rat prostate carcinoma; cited from earlier work
# [1] = test system: DU145 tumors (a prostate adenocarcinoma cell line); details: SCID mice, orally 125 to 250 mg/kg/day; cited from earlier work
# uPA = uPA (Homo sapiens, UniProt P00749); details: background, literature; read-out: Ki, uPA (inhibition constant); cited from earlier work
# Plasmin = Plasmin (Homo sapiens, UniProt P00747); experiment: In vitro inhibition of plasmin (Ki according to Dixon); assay type: biochemical
# Method: (§1) In order to determine the inhibitory activity, 200 μl Tris buffer (0.05 mol/l containing the inhibitor, 0.154 mol/l NaCl, pH 8.0), 25 μl substrate (Pefachrome uPA, Pefachrome PL or Pefabloc TH in H2O; Pentapharm Ltd, Basle, Switzerland) and 50 μl urokinase (Calbiochem-Novabiochem GmbH, Bad Soden, Germany) or another appropriate protease e.g. plasmin, thrombin or FXa are incubated for 10 minutes at 30° C. After ca. 30 minutes and 30 cycles the absorption is determined at 405 nm by means of a microplate reader (Mediators PHL, Aureon Biosystems, Vienna, Austria). The Ki values were determined according to Dixon by linear regression using a computer program.
# mammary carcinoma BN-472 = experiment: Tumor spreading, tumor growth and metastasizing in a rat breast cancer model; assay type: in vivo, brown Norwegian rats; details: 0.3 mg/kg daily subcutaneously, 4 weeks
# Method: 10-25 mm^3 of transplantable metastasising mammary carcinoma BN-472 breast cancer tumor fragments from donor rats were transplanted orthotopically under the mammary fat pad. (Day 0) into 6 to 8 weeks old female brown Norwegian rats. Subcutaneous treatment was started 5 days after tumor inoculation. Each group consisted of 18 animals. The treatment group received a daily dose of 0.3 mg/kg body weight subcutaneously. The treatment-was carried out over a period of 4 weeks.
# The dimensions of the subcutaneous tumors and the weight of the animals were determined weekly. At the end of the treatment the animals were sacrificed and tumor weights, organ weights and the number of metastases in relevant tissues were determined.
# The data were analyzed using the SigmaStat Vers.2.03 statistical package. Tumor sizes, tumor weights and the weights of the organs were checked with the Shapiro-Wilk W-test for normality of distribution (Royston P., Approximating the Shapiro-Wilk W-test for non-normality. Statistics and Computing 1992, 2:117-119). For each parameter the Shapiro-Wilk W-tests were performed on all data (e.g., tumor weights of all rats), and separately for each treatment group. If one of the P-values was <0.05 the variable was considered to be abnormally distributed and the Mann-Whitney U-test was used to test for significance levels of differences. The Mann-Whitney U-test was used to test for differences in weights of the axillary lymph nodes, intra peritoneal lymph nodes, tumor, and the number of lung foci. Primary and metastatic tumor data at the end of the treatment period were graphically represented using the Box-Whisker graphs, with the box showing the inter-quartile range of values, with a horizontal line at the median value. Whiskers represent the 5th and 95th percentile of values, and the individual values are indicated by dots. The unadjusted level for statistical significance was α=0.05. All tests were two-sided.
# Caco-2 cell monolayers = experiment: Caco-assay: transport across Caco-2 cell monolayers; assay type: in vitro ADME, human; details: for % amount in the basolateral compartment: 10 μg/ml apical, four hours
# Method: Transport of the compounds WX-508, WXC-316, WXC-318, WXC-324, WXC-340, WX-532, WX-538, WX-550 and WX-582 across Caco-2 cell monolayers was investigated. In this experiment the bioavailability of the said compounds after oral administration was assessed.
# Caco-2-cells (American Type Culture Collection, Rockville, Md., USA) were cultured in Dulbecco's modified Eagle medium (DMEM) (Life Technologies, Gibco BRL, UK) containing 10% vol/vol heat-denatured foetal calf serum (FCS), 1% vol/vol non-essential amino acids, 160 U/ml benzylpenicillin and 100 U/ml streptomycin (Sigma Chemical, St. Louis, Mo., USA). The cells are kept at 37° C. in an atmosphere comprising 95% air and 5% CO2 at 90% relative air humidity. The cells are cultured in […] culture flasks, the medium being replaced every second day and the cells are trypsinized once per week.
# For the transport investigations the Caco-2 cells are cultured on porous polycarbonate filter membranes having a pore size of 0.4 μm and a surface of 4.7 cm^2 in clusters of 6 wells (Costar Transwell, Badhoevedorp, Netherlands). The cells are inoculated on each filter at an initial density of 10^4 cells/cm^2. These cells are kept at 37° C. in one of the atmospheres described above. The medium is replaced every second day for a period of three weeks.
# On the day of the transport experiment the culture medium was replaced by the same volume of Hank's balanced saline solution (HBSS) buffered with 30 mM HEPES at pH 7.2 (transport medium) and the cells are allowed to equilibrate for 1 hour. Afterwards the apical medium is replaced by 1.5 ml of a solution containing one of the compounds in HBSS/HEPES (10 μg/ml). Cell monolayers are incubated for four hours. Samples of the apical and basolateral compartments are removed at the end of the experiments and used to quantitatively determine the transport of the respective compounds.
# The transepithelial electric resistance (TEER) is measured before and after equilibration using a Milicell ERS meter which was connected to a pair of electrodes in order to ensure the integrity of the monolayers formed on the filters. TEER is also measured at the end of the experiments to ensure that the cell monolayer remains coherent.
# Samples are taken from the apical and the basolateral side and analysed in a beta counter after adding a scintillation cocktail. All experiments were carried out three times.
# [2] = Oral bioavailability and plasma kinetics in mice (serum concentration); assay type: in vivo, Balb/c mice; details: mouse; for concentration at 20 min / concentration at 40 min / concentration at 60 min: female, Balb/c, serum, po; for concentration at 20 min: sample at 20 minutes; for concentration at 40 min: sample at 40 minutes; for concentration at 60 min: sample at 60 minutes; for c in the serum 1st analysis: 10 mg/kg i.v.
# urokinase (uPA) = biological target: T1, urokinase (uPA) (Homo sapiens, UniProt P00749); experiment: In vitro inhibition of urokinase (Ki according to Dixon, chromogenic substrate); assay type: biochemical
# T1 construct: purchased Calbiochem-Novabiochem GmbH, Bad Soden, Germany
# In short: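 Chromogenic read-out in 0.05 mol/l Tris, 0.154 mol/l NaCl, pH 8.0, with inhibitor, substrate (Pefachrome uPA, Pefachrome PL or Pefabloc TH) and protease, incubated 10 min at 30 °C. Absorbance at 405 nm was read after ca. 30 min (30 cycles). Ki was derived by Dixon linear regression.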
# Thrombin = Thrombin (Homo sapiens, UniProt P00734); experiment: In vitro inhibition of thrombin (Ki according to Dixon); assay type: biochemical
# Method: as §1
# PK = PK (Homo sapiens, UniProt P03952); experiment: In vitro inhibition of PK (Ki); assay type: biochemical; details: summary table
# Method: as §1
# FXa = FXa (Homo sapiens, UniProt P00742); experiment: In vitro inhibition of FXa (Ki according to Dixon); assay type: biochemical
# Method: as §1
# [3] = test system: rat breast adenocarcinoma cells; details: after i.v. inoculation of rat breast adenocarcinoma cells; cited from earlier work
# [4] = 30 mg/kg, 30 mg/kg oral, read-out: c in the serum 1st analysis
# [5] = 30 mg/kg, 30 mg/kg oral, read-out: c in the serum 2nd analysis
# [6] = 300 mg/kg, 300 mg/kg oral, read-out: c in the serum 1st analysis
# Chain of Plasmin (P00747 581-810 limits assumed, species assumed): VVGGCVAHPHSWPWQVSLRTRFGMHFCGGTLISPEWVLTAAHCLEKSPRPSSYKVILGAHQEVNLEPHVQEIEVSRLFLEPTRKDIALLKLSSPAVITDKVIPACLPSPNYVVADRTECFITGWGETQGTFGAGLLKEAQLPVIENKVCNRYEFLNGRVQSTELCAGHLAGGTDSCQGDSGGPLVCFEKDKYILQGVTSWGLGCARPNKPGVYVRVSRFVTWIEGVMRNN
# Chain of Plasmin (P00747 97-580 partner limits assumed, species assumed): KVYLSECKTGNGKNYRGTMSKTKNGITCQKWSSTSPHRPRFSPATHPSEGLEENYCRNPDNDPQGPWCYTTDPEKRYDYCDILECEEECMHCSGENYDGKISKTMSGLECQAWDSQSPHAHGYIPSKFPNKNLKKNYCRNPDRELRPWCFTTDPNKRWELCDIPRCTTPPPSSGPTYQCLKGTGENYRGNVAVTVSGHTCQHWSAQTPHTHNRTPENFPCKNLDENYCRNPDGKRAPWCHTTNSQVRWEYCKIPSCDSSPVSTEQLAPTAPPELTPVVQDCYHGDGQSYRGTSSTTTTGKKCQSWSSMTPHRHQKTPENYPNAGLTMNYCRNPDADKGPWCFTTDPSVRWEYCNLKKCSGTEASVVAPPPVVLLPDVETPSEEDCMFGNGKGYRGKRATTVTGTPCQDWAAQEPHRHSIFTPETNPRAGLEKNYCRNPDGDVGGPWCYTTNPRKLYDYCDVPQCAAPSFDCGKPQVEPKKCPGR
# Chain of PK (P03952 20-638): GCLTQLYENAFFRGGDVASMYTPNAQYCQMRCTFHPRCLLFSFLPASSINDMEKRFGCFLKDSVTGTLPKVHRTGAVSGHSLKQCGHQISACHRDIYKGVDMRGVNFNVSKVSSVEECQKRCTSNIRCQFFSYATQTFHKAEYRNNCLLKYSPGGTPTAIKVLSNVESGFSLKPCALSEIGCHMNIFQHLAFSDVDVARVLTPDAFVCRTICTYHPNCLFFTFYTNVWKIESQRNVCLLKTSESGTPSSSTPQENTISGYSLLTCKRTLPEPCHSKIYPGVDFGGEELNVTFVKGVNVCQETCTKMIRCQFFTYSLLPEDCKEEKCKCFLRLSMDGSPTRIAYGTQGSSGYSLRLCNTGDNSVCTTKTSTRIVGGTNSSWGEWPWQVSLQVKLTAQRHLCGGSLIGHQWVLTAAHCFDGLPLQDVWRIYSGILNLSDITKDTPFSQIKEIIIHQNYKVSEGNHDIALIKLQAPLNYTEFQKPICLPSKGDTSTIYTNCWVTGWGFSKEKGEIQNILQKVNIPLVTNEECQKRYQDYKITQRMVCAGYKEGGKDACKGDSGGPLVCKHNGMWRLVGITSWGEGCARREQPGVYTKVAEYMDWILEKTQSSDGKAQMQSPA
# Chain of FXa (P00742 235-488 limits assumed): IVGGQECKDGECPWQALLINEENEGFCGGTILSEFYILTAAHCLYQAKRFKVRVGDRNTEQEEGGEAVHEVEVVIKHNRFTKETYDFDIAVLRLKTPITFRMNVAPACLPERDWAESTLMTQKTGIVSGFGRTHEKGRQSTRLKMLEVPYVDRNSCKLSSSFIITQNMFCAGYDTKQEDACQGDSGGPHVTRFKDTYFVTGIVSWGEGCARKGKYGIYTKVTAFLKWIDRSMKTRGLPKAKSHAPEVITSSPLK
# Chain of FXa (P00742 41-179 partner limits assumed): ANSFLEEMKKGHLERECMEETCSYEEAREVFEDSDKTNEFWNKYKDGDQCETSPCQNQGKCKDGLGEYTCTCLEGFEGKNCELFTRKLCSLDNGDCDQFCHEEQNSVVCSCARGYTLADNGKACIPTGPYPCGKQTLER
structure (smiles),measurement,setting,value
"N=C(N)c1cc2c(I)cccc2s1 [B428, 4-iodo-benzo[b]-thiophene-2-carboxamidine]",primary tumor growth,mouse mammary carcinoma; administered together with the anti-oestrogen Tamoxifen,further decrease of primary tumor growth
same,tumor growth and formation of metastases,mouse mammary carcinoma; syngenic model for mouse mammary carcinoma,decrease in tumor growth and formation of metastases
same,tumor growth and formation of metastases,rat prostate carcinoma,decrease in tumor growth and formation of metastases
N=C(N)c1ccc(N)cc1 [p-Aminobenzamidine],growth rate of DU145 tumors,[1],considerable decrease in the growth rate
same,side-effects,[1],negligibly small
same,pKi,uPA,4.09
"N=C(N)Nc1ccc(CNC(=O)CNC(=O)C(CO)NS(=O)(=O)Cc2ccc(Cl)cc2)cc1 (stereo not drawn) [WX-C340, 4-Chlorobenzyl-sulfonyl-(D)-Ser-Gly-(4-guanidinobenzyl)amide hydrochloride]",Ki Plasmin,Plasmin,no inh. at 100 μM *)
same,Ki Plasmin,Plasmin; summary table,no inh. at 100 μM *)
same,reduction of the axillary lymph node weights,"mammary carcinoma BN-472; compared with the control group, P=0.006",73%
same,reduction in the number of lung foci,"mammary carcinoma BN-472; compared with the control group, P≦0.001",63%
same,reduction of the median tumor weight,mammary carcinoma BN-472; P=0.141,29%
same,% amount in the basolateral compartment,Caco-2 cell monolayers; first value column,2.4%
same,% amount in the basolateral compartment,Caco-2 cell monolayers; second value column,0.2%
same,% amount in the basolateral compartment,Caco-2 cell monolayers; third value column,0.1%
same,Caco-2 assay % basolateral,"Caco-2 cell monolayers; first series, first value",2.4%
same,Caco-2 assay % basolateral,"Caco-2 cell monolayers; first series, second value",0.2%
same,Caco-2 assay % basolateral,"Caco-2 cell monolayers; first series, third value",0.1%
same,Caco-2 assay % basolateral,"Caco-2 cell monolayers; second series, first value",2.3%
same,Caco-2 assay % basolateral,"Caco-2 cell monolayers; second series, second value",0.1%
same,Caco-2 assay % basolateral,"Caco-2 cell monolayers; second series, third value",0.1%
same,concentration at 20 min,[2]; [4],300 ng/mL
same,concentration at 20 min,[2]; [5],500 ng/mL
same,concentration at 40 min,[2]; [4],300 ng/mL
same,concentration at 40 min,[2]; [5],800 ng/mL
same,concentration at 60 min,[2]; [4],1400 ng/mL
same,concentration at 60 min,[2]; [5],2300 ng/mL
same,concentration at 20 min,[2]; [6],4500 ng/mL
same,concentration at 40 min,[2]; [6],4900 ng/mL
same,concentration at 60 min,[2]; [6],4300 ng/mL
same,c in the serum 1st analysis,[2]; time of sample collection 0,51.8 µg/mL
same,c in the serum 1st analysis,[2]; time of sample collection 10,5.3 µg/mL
same,c in the serum 1st analysis,[2]; time of sample collection 30,1.7 µg/mL
same,pKi,"urokinase (uPA); list of test substances of Example 17, read-out: Ki human uPA",8.00
same,pKi,urokinase (uPA); read-out: Ki uPA,8.00
same,pKi,"urokinase (uPA); summary table, read-out: Ki uPA",8.00
same,Ki Thrombin,Thrombin,no inh. at 100 μM *)
same,Ki Thrombin,Thrombin; summary table,no inh. at 100 μM *)
same,pKi,PK,3.67
same,pKi,FXa,4.47
N=C(N)NC(=O)c1nc(Cl)c(N)nc1N [amiloride],formation of lung metastases,[3],prevents the formation of lung metastases
